Key:
[1] = molecular target: T1, Peroxisome proliferator-activated receptor delta (Mus musculus, UniProt P35396); details: cv-1
T1 sequence (P35396 whole entry): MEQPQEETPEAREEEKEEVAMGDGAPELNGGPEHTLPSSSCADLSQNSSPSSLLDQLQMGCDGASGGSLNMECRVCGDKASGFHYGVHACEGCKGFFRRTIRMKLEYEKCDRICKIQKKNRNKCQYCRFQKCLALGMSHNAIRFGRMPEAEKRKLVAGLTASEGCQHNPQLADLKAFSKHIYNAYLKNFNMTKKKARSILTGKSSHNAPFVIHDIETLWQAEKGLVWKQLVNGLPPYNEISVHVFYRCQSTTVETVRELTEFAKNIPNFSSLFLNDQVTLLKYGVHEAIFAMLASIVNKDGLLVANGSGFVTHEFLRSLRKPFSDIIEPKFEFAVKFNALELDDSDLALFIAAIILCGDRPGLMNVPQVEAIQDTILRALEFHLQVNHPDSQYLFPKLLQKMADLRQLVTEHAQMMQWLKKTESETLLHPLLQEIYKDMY

[2] = molecular target: T2, Peroxisome proliferator-activated receptor gamma (Mus musculus, UniProt P37238)
T2 sequence (P37238 whole entry): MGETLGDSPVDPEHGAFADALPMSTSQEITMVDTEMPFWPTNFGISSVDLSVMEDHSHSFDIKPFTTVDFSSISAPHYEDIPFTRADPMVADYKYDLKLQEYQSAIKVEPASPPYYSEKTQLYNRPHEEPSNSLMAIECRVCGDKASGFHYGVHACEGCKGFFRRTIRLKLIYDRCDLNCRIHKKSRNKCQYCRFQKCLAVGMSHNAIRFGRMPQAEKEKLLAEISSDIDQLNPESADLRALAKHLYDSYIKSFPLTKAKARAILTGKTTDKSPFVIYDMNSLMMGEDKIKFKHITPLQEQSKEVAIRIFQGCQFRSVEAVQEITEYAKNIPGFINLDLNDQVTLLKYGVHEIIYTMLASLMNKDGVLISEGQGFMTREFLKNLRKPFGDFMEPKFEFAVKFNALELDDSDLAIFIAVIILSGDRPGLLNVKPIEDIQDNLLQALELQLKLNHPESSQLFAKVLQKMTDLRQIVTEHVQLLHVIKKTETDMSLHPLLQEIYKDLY
Description: In vitro transcriptional activation of Peroxisome proliferator activated receptor gamma (PPAR) expressed in CV-1 cells

[3] = molecular target: T3, Peroxisome proliferator-activated receptor alpha (Mus musculus, UniProt P23204); assay: In vitro transcriptional activation of peroxisome proliferator activated alpha-receptor (PPAR) expressed in CV-1 cells; Inactive; assay type: functional, cell-based
T3 sequence (P23204 whole entry): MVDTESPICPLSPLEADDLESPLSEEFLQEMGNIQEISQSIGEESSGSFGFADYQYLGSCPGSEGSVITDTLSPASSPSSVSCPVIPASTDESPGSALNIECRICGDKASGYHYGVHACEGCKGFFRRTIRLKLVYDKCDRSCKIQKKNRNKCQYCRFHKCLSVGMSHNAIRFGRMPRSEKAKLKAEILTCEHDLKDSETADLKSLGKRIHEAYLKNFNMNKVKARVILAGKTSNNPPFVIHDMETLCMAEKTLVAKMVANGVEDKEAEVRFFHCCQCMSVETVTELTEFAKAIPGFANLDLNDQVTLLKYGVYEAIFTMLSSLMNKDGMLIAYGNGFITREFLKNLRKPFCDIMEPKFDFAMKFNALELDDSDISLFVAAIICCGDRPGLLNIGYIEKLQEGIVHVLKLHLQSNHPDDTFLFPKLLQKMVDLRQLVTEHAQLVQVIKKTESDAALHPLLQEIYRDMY

[4] = organism: Mus musculus; assay: Minimum effective dose required for significant reduction in blood glucose in ob/ob mice; assay type: functional
[5] = molecular target: T3, Peroxisome proliferator-activated receptor alpha; assay: In vitro transcriptional activation of peroxisome proliferator activated alpha-receptor (PPAR) expressed in CV-1 cells; assay type: functional, cell-based

| SMILES | EC50 [1] | EC50 [2] [µM] | EC50 [3] | EC50 [5] [µM] | MED [4] [µM/kg] |
| --- | --- | --- | --- | --- | --- |
| O=C1NC(=O)C(Cc2ccc3c(c2)CC[C@H](Cc2ccccc2)O3)S1 (some centres not stated) [ENGLITAZONE] | Not Active | 13 | Not Active | – | – |
| CN(CCOc1ccc(/C=C2\SC(=O)NC2=O)cc1)c1ccccn1 | Not Active | 0.19 | Not Active | – | 300 |
| CCc1ccc(CCOc2ccc(CC3SC(=O)NC3=O)cc2)nc1 (configuration not stated) [PIOGLITAZONE] | Not Active | – | Not Active | – | 300 |
| CN(CCOc1ccc(/C=C2\SC(=O)NC2=O)cc1)c1nc2ccccc2o1 | Not Active | 0.14 | Not Active | – | 300 |
| O=C(O)CCC(=O)c1ccc(Oc2ccc(Cl)cc2)cc1 | Not Active | 110 | – | 80 | – |
| CC1(COc2ccc(CC3SC(=O)NC3=O)cc2)CCCCC1 (configuration not stated) [CIGLITAZONE] | Not Active | 3 | Not Active | – | 3000 |
| CC(C)(Oc1ccc(Cl)cc1)C(=O)O [CLOFIBRIC ACID] | Not Active | 600 | – | 51 | – |

Second part, led by results:

| EC50 [1] | EC50 [2] [µM] | EC50 [3] | EC50 [5] [µM] | SMILES | MED [4] [µM/kg] |
| --- | --- | --- | --- | --- | --- |
| Not Active | 10 | Not Active | – | CN(CCOc1ccc(C2SC(=O)NC2=O)cc1)c1nc2ccccc2o1 (configuration not stated) | >1000 |
| Not Active | 1 | Not Active | – | CN(CCCOc1ccc(CC2SC(=O)NC2=O)cc1)c1nc2ccccc2o1 (configuration not stated) | 300 |
| Not Active | – | Not Active | – | CN(CCOc1ccc(CC2SC(=O)NC2=O)cc1)c1nc2ccccc2o1 (configuration not stated) [BRL-48482] | 3 |
| – | – | Not Active | – | CN(CCOc1ccc(CC2SC(=O)NC2=O)cc1)c1ccccn1 (configuration not stated) [ROSIGLITAZONE] | 3 |

— ChEMBL document CHEMBL1129472, “The structure-activity relationship between peroxisome proliferator-activated receptor gamma agonism and the antihyperglycemic activity of thiazolidinediones” (J Med Chem, 1996)
